Laboratory results from ChEMBL document CHEMBL1144299, “Quinazolinethiones and quinazolinediones, novel inhibitors of inosine monophosphate dehydrogenase: synthesis and initial structure-activity relationships” (Bioorg Med Chem Lett, 2005).

What was measured:
[1] = In vitro concentration required to inhibit peripheral blood mononuclear cell proliferation was determined; assay type: functional
[2] = molecular target: Inosine-5'-monophosphate dehydrogenase 2 (Homo sapiens, UniProt P12268); experiment: In vitro inhibitory concentration against inosine-5'-monophosphate dehydrogenase
[3] = Percent inhibition of inosine-5'-monophosphate dehydrogenase was determined at 1 uM concentration; assay type: functional
[4] = In vitro concentration required to inhibit peripheral blood mononuclear cell proliferation; Inactive; assay type: functional

| Structure (SMILES) | IC50 [2] | inhibition [3] | IC50 [1] | IC50 [4] |
| --- | --- | --- | --- | --- |
| COc1cc2[nH]c(=O)n(CCN3CCOCC3)c(=O)c2cc1-c1cnco1 | 297 nM |  | 9130 nM |  |
| COc1cc2[nH]c(=S)n(CCN3CCOCC3)c(=O)c2cc1-c1cnco1 | 71 nM |  | 2760 nM |  |
| COc1cc2[nH]c(=O)n(CCc3ccncc3)c(=O)c2cc1-c1cnco1 | 188 nM |  | 1200 nM |  |
| COc1cc2[nH]c(=O)n(CCn3ccnc3)c(=O)c2cc1-c1cnco1 | 86 nM |  | 2400 nM |  |
| COc1cc2[nH]c(=O)n(CCc3c[nH]cn3)c(=O)c2cc1-c1cnco1 | 47 nM |  |  | Not Active |
| COc1cc2nc(S)nc(O)c2cc1-c1cnco1 | 30 nM |  |  |  |

The next lines start with results.

| IC50 [2] | inhibition [3] | Structure (SMILES) | IC50 [1] | IC50 [4] |
| --- | --- | --- | --- | --- |
| 1710 nM |  | COc1cc2[nH]c(=S)n(-c3cccnc3)c(=O)c2cc1-c1cnco1 |  |  |
| 13 nM |  | COc1cc2[nH]c(=S)n(CCc3ccncc3)c(=O)c2cc1-c1cnco1 | 780 nM |  |
| 104 nM |  | COc1cc2[nH]c(=O)n(C)c(=O)c2cc1-c1cnco1 | 4000 nM |  |
| 91 nM |  | COc1cc2[nH]c(=S)n(CCc3ccccn3)c(=O)c2cc1-c1cnco1 | 1000 nM |  |
|  | 27% | COc1cc2[nH]c(=S)n(C(C)C)c(=O)c2cc1-c1cnco1 |  |  |
| 17 nM |  | COc1cc2[nH]c(=S)n(C)c(=O)c2cc1-c1cnco1 | 1100 nM |  |
| 100 nM |  | COc1cc2[nH]c(=S)n(Cc3ccncc3)c(=O)c2cc1-c1cnco1 | 4100 nM |  |
| 22 nM |  | COc1cc2[nH]c(=S)n(CCCn3ccnc3)c(=O)c2cc1-c1cnco1 | 980 nM |  |
| 821 nM |  | COc1cc2[nH]c(=S)n(CC(C)(C)C)c(=O)c2cc1-c1cnco1 |  |  |
